In the supplement of paper PMC10307832:

Experiments:
Test in all cases: relative viability (nuclei count vs DMSO), 5 days (fraction); higher = more cells survive
Shikonin + Crizotinib = compound: CC(C)=CC[C@@H](O)C1=CC(=O)c2c(O)ccc(O)c2C1=O [Shikonin] + C[C@@H](Oc1cc(-c2cnn(C3CCNCC3)c2)cnc1N)c1c(Cl)ccc(F)c1Cl [Crizotinib] (partner 1 µM)
In short: (§1)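 For relative viability, nuclei counts in treated wells were divided by those in vehicle wells. Lung cancer cell lines had been pin-tool dosed in 1536-well plates the day after seeding and cultured for 5 days, then fixed and stained in one step (final 0.05% Triton X-100, 1% formaldehyde, 1 ug/ml Hoechst) and imaged at 4×. Doses were one drug alone or a fixed anchor-drug dose plus five library-drug doses (not always all listed) in √10 steps, and values are duplicate-plate medians.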

Shikonin + Linsitinib = compound: CC(C)=CC[C@@H](O)C1=CC(=O)c2c(O)ccc(O)c2C1=O [Shikonin] + C[C@]1(O)C[C@@H](c2nc(-c3ccc4ccc(-c5ccccc5)nc4c3)c3c(N)nccn32)C1 [Linsitinib] (partner 1 µM)
In short: as §1

Shikonin + Pictilisib = compound: CC(C)=CC[C@@H](O)C1=CC(=O)c2c(O)ccc(O)c2C1=O [Shikonin] + CS(=O)(=O)N1CCN(Cc2cc3nc(-c4cccc5[nH]ncc45)nc(N4CCOCC4)c3s2)CC1 [Pictilisib] (partner 1 µM)
In short: as §1

Shikonin + Tozasertib = compound: CC(C)=CC[C@@H](O)C1=CC(=O)c2c(O)ccc(O)c2C1=O [Shikonin] + Cc1cc(Nc2cc(N3CCN(C)CC3)nc(Sc3ccc(NC(=O)C4CC4)cc3)n2)n[nH]1 [Tozasertib] (partner 0.1 µM)
In short: as §1

Shikonin + OSI-027 = compound: CC(C)=CC[C@@H](O)C1=CC(=O)c2c(O)ccc(O)c2C1=O [Shikonin] + COc1cccc2cc(-c3nc([C@H]4CC[C@H](C(=O)O)CC4)n4ncnc(N)c34)[nH]c12 [OSI-027] (partner 0.5 µM)
In short: as §1

Cell Line | relative viability (Shikonin + Crizotinib; first compound 0.01 µM) | relative viability (Shikonin + Crizotinib; first compound 0.1 µM) | relative viability (Shikonin + Crizotinib; first compound 0.3162 µM) | relative viability (Shikonin + Crizotinib; first compound 1 µM) | relative viability (Shikonin + Linsitinib; first compound 0.01 µM) | relative viability (Shikonin + Linsitinib; first compound 0.1 µM) | relative viability (Shikonin + Linsitinib; first compound 0.3162 µM) | relative viability (Shikonin + Linsitinib; first compound 1 µM) | relative viability (Shikonin + Pictilisib; first compound 0.01 µM) | relative viability (Shikonin + Pictilisib; first compound 0.1 µM) | relative viability (Shikonin + Pictilisib; first compound 0.3162 µM) | relative viability (Shikonin + Pictilisib; first compound 1 µM) | relative viability (Shikonin + Tozasertib; first compound 0.01 µM) | relative viability (Shikonin + Tozasertib; first compound 0.1 µM) | relative viability (Shikonin + Tozasertib; first compound 0.3162 µM) | relative viability (Shikonin + Tozasertib; first compound 1 µM) | relative viability (Shikonin + OSI-027; first compound 0.01 µM) | relative viability (Shikonin + OSI-027; first compound 0.1 µM) | relative viability (Shikonin + OSI-027; first compound 0.3162 µM) | relative viability (Shikonin + OSI-027; first compound 1 µM)
LCLC-103H | 0.953 | 1 | 1.13 | 1.06 | 1.03 | 1.21 | 1.26 | 1.23 | 0.503 | 0.708 | 0.677 | 0.676 | 0.452 | 0.498 | 0.52 | 0.516 | 0.541 | 0.54 | 0.514 | 0.534
LK-2 | 0.248 | 0.212 | 0.219 | 0.221 | 0.589 | 0.539 | 0.527 | 0.473 | 0.531 | 0.546 | 0.619 | 0.476 | 0.178 | 0.154 | 0.165 | 0.154 | 0.168 | 0.241 | 0.203 | 0.227
LOU-NH91 | 0.737 | 0.686 | 0.775 | 0.737 | 0.904 | 0.999 | 1.06 | 0.974 | 0.509 | 0.544 | 0.52 | 0.563 | 0.685 | 0.711 | 0.613 | 0.683 | 0.718 | 0.813 | 0.786 | 0.726
LU99A | 0.545 | 0.688 | 0.599 | 0.465 | 0.573 | 0.522 | 0.525 | 0.536 | 0.309 | 0.3 | 0.337 | 0.303 | 0.248 | 0.281 | 0.298 | 0.234 | 0.271 | 0.344 | 0.265 | 0.305
LXF-289 | 0.856 | 0.825 | 0.773 | 0.844 | 1.07 | 0.911 | 1 | 0.996 | 0.868 | 0.784 | 0.799 | 0.775 | 0.212 | 0.183 | 0.209 | 0.196 | 0.817 | 0.84 | 0.825 | 0.892
NCI-H23 | 0.576 | 0.489 | 0.515 | 0.502 | 0.592 | 0.489 | 0.696 | 0.533 | 0.508 | 0.514 | 0.497 | 0.378 | 0.363 | 0.335 | 0.658 | 0.413 | 0.623 | 0.661 | 0.62 | 0.521
NCI-H322M | 0.866 | 0.997 | 0.855 | 0.882 | 0.919 | 0.837 | 0.993 | 1.13 | 0.498 | 0.526 | 0.496 | 0.504 | 0.486 | 0.467 | 0.478 | 0.381 | 0.548 | 0.562 | 0.53 | 0.509
NCI-H358 | 0.699 | 0.484 | 0.619 | 0.63 | 0.916 | 0.688 | 0.857 | 0.511 | 0.297 | 0.366 | 0.281 | 0.343 | 0.104 | 0.102 | 0.0979 | 0.0975 | 0.681 | 0.699 | 0.712 | 0.662
NCI-H441 | 0.921 | 0.782 | 0.887 | 0.771 | 0.618 | 0.573 | 0.578 | 0.516 | 0.621 | 0.436 | 0.485 | 0.437 | 0.898 | 0.617 | 0.663 | 0.601 | 0.539 | 0.831 | 0.619 | 0.624
NCI-H460 | 1.37 | 1.38 | 1.26 | 0.884 | 0.914 | 0.819 | 0.992 | 0.904 | 0.357 | 0.441 | 0.357 | 0.375 | 0.456 | 0.496 | 0.483 | 0.414 | 0.834 | 0.755 | 1.11 | 0.879
NCI-H520 | – | 0.878 | 0.608 | 0.842 | – | 1.11 | 1.07 | 1.07 | – | 0.393 | 0.263 | 0.348 | 0.49 | 0.436 | 0.475 | 0.433 | 0.288 | 0.243 | 0.209 | 0.304
NCI-H596 | 1.1 | 0.884 | 0.96 | 0.985 | 1.04 | 0.887 | 1.16 | 1.06 | 0.341 | 0.385 | 0.422 | 0.4 | 0.79 | 0.83 | 0.914 | 0.732 | 0.584 | 0.968 | 0.754 | 0.679
NCI-H647 | 1.13 | 1.29 | 0.931 | 1.01 | 1.01 | 1.37 | 1.51 | 1.32 | 0.458 | 0.552 | 0.441 | 0.573 | 0.407 | 0.323 | 0.247 | 0.193 | 0.712 | 0.631 | 0.666 | 0.602
NCI-H650 | 0.818 | – | 0.643 | 0.804 | 0.975 | – | 0.843 | 0.845 | 0.946 | – | 0.965 | 0.845 | 0.69 | 0.793 | 0.788 | 0.66 | 0.612 | 0.555 | 0.592 | 0.568
NCI-H661 | 1.24 | 1.11 | 0.967 | 0.957 | 0.724 | 0.575 | 0.656 | 0.546 | 0.372 | 0.427 | 0.39 | 0.38 | 0.371 | 0.359 | 0.355 | 0.37 | 0.685 | 0.774 | 0.782 | 0.842
NCI-H727 | 1.02 | 0.991 | 0.727 | 0.589 | 0.165 | 0.252 | 0.319 | 0.314 | 0.326 | 0.353 | 0.311 | 0.431 | 1.64 | 0.672 | 0.634 | 0.697 | 0.683 | 0.668 | 0.57 | 0.525
